Laboratory results reported in ChEMBL document CHEMBL4765227, “Hit to lead optimization of a series of N-[4-(1,3-benzothiazol-2-yl)phenyl]acetamides as monoacylglycerol lipase inhibitors with potential anticancer activity” (Eur J Med Chem, 2016).

Experiments:
Type in all cases: functional
Conditions in all cases: read-out: GI
[1] = tested on: DU-145; assay: Growth inhibition of human DU-145 cells at 10 uM incubated for 48 hrs by sulforhodamine B assay relative to control
[2] = tested on: NCI-H23; assay: Growth inhibition of human NCI-H23 cells at 10 uM incubated for 48 hrs by sulforhodamine B assay relative to control
[3] = tested on: MDA-MB-468; assay: Growth inhibition of human MDA-MB-468 cells at 10 uM incubated for 48 hrs by sulforhodamine B assay relative to control
[4] = tested on: SK-MEL-5; assay: Growth inhibition of human SK-MEL-5 cells at 10 uM incubated for 48 hrs by sulforhodamine B assay relative to control
[5] = tested on: OVCAR-4; assay: Growth inhibition of human OVCAR-4 cells at 10 uM incubated for 48 hrs by sulforhodamine B assay relative to control
[6] = tested on: RXF 393; assay: Growth inhibition of human RXF 393 cells at 10 uM incubated for 48 hrs by sulforhodamine B assay relative to control
[7] = tested on: NCI-H322M; assay: Growth inhibition of human NCI-H322M cells at 10 uM incubated for 48 hrs by sulforhodamine B assay relative to control
[8] = tested on: UACC-257; assay: Growth inhibition of human UACC-257 cells at 10 uM incubated for 48 hrs by sulforhodamine B assay relative to control
[9] = tested on: SNB-19; assay: Growth inhibition of human SNB-19 cells at 10 uM incubated for 48 hrs by sulforhodamine B assay relative to control
[10] = tested on: NCI-H460; assay: Growth inhibition of human NCI-H460 cells at 10 uM incubated for 48 hrs by sulforhodamine B assay relative to control
[11] = tested on: SR; assay: Growth inhibition of human SR cells at 10 uM incubated for 48 hrs by sulforhodamine B assay relative to control
[12] = tested on: U-251; assay: Growth inhibition of human U-251 cells at 10 uM incubated for 48 hrs by sulforhodamine B assay relative to control
[13] = tested on: OVCAR-5; assay: Growth inhibition of human OVCAR-5 cells at 10 uM incubated for 48 hrs by sulforhodamine B assay relative to control
[14] = tested on: NCI-H226; assay: Growth inhibition of human NCI-H226 cells at 10 uM incubated for 48 hrs by sulforhodamine B assay relative to control
[15] = tested on: OVCAR-8; assay: Growth inhibition of human OVCAR-8 cells at 10 uM incubated for 48 hrs by sulforhodamine B assay relative to control
[16] = tested on: KM12; assay: Growth inhibition of human KM12 cells at 10 uM incubated for 48 hrs by sulforhodamine B assay relative to control
[17] = tested on: RPMI-8226; assay: Growth inhibition of human RPMI-8226 cells at 10 uM incubated for 48 hrs by sulforhodamine B assay relative to control
[18] = tested on: CCRF-CEM; assay: Growth inhibition of human CCRF-CEM cells at 10 uM incubated for 48 hrs by sulforhodamine B assay relative to control
[19] = tested on: SF-539; assay: Growth inhibition of human SF-539 cells at 10 uM incubated for 48 hrs by sulforhodamine B assay relative to control
[20] = tested on: T47D; assay: Growth inhibition of human T47D cells at 10 uM incubated for 48 hrs by sulforhodamine B assay relative to control
[21] = tested on: HT-29; assay: Growth inhibition of human HT-29 cells at 10 uM incubated for 48 hrs by sulforhodamine B assay relative to control
[22] = tested on: HOP-92; assay: Growth inhibition of human HOP-92 cells at 10 uM incubated for 48 hrs by sulforhodamine B assay relative to control
[23] = tested on: HCC 2998; assay: Growth inhibition of human HCC 2998 cells at 10 uM incubated for 48 hrs by sulforhodamine B assay relative to control
[24] = tested on: HL-60(TB); assay: Growth inhibition of human HL-60(TB) cells at 10 uM incubated for 48 hrs by sulforhodamine B assay relative to control
[25] = tested on: HCT-116; assay: Growth inhibition of human HCT-116 cells at 10 uM incubated for 48 hrs by sulforhodamine B assay relative to control
[26] = tested on: Hs-578T; assay: Growth inhibition of human Hs-578T cells at 10 uM incubated for 48 hrs by sulforhodamine B assay relative to control
[27] = tested on: PC-3; assay: Growth inhibition of human PC-3 cells at 10 uM incubated for 48 hrs by sulforhodamine B assay relative to control
[28] = tested on: MDA-MB-435; assay: Growth inhibition of human MDA-MB-435 cells at 10 uM incubated for 48 hrs by sulforhodamine B assay relative to control
[29] = tested on: SW-620; assay: Growth inhibition of human SW-620 cells at 10 uM incubated for 48 hrs by sulforhodamine B assay relative to control
[30] = tested on: UACC-62; assay: Growth inhibition of human UACC-62 cells at 10 uM incubated for 48 hrs by sulforhodamine B assay relative to control
[31] = tested on: SF-268; assay: Growth inhibition of human SF-268 cells at 10 uM incubated for 48 hrs by sulforhodamine B assay relative to control
[32] = tested on: SN12C; assay: Growth inhibition of human SN12C cells at 10 uM incubated for 48 hrs by sulforhodamine B assay relative to control
[33] = tested on: NCI-H522; assay: Growth inhibition of human NCI-H522 cells at 10 uM incubated for 48 hrs by sulforhodamine B assay relative to control
[34] = tested on: SK-OV-3; assay: Growth inhibition of human SK-OV-3 cells at 10 uM incubated for 48 hrs by sulforhodamine B assay relative to control
[35] = tested on: ACHN; assay: Growth inhibition of human ACHN cells at 10 uM incubated for 48 hrs by sulforhodamine B assay relative to control
[36] = tested on: HCT-15; assay: Growth inhibition of human HCT-15 cells at 10 uM incubated for 48 hrs by sulforhodamine B assay relative to control
[37] = tested on: M14; assay: Growth inhibition of human M14 cells at 10 uM incubated for 48 hrs by sulforhodamine B assay relative to control
[38] = tested on: UO-31; assay: Growth inhibition of human UO-31 cells at 10 uM incubated for 48 hrs by sulforhodamine B assay relative to control
[39] = tested on: LOX IMVI; assay: Growth inhibition of human LOX IMVI cells at 10 uM incubated for 48 hrs by sulforhodamine B assay relative to control
[40] = tested on: A549; assay: Growth inhibition of human A549/ATCC cells at 10 uM incubated for 48 hrs by sulforhodamine B assay relative to control
[41] = tested on: MDA-MB-231; assay: Growth inhibition of human MDA-MB-231 cells at 10 uM incubated for 48 hrs by sulforhodamine B assay relative to control
[42] = tested on: TK-10; assay: Growth inhibition of human TK-10 cells at 10 uM incubated for 48 hrs by sulforhodamine B assay relative to control
[43] = tested on: COLO 205; assay: Growth inhibition of human COLO 205 cells at 10 uM incubated for 48 hrs by sulforhodamine B assay relative to control
[44] = tested on: SF-295; assay: Growth inhibition of human SF-295 cells at 10 uM incubated for 48 hrs by sulforhodamine B assay relative to control

O=C(Cn1ccc2ccccc21)Nc1ccc(-c2nc3ccccc3s2)cc1
inhibition of growth at 10 µM [1]: -0.67% | inhibition of growth at 10 µM [2]: 5.98% | inhibition of growth at 10 µM [3]: 150% | inhibition of growth at 10 µM [4]: 1.44% | inhibition of growth at 10 µM [5]: -2.92% | inhibition of growth at 10 µM [6]: -12.6% | inhibition of growth at 10 µM [7]: 1.19% | inhibition of growth at 10 µM [8]: -0.08% | inhibition of growth at 10 µM [9]: 1.41% | inhibition of growth at 10 µM [10]: -4.62% | inhibition of growth at 10 µM [11]: 4.51% | inhibition of growth at 10 µM [12]: 2.41% | inhibition of growth at 10 µM [13]: -3.94% | inhibition of growth at 10 µM [14]: -2.24% | inhibition of growth at 10 µM [15]: -4.73% | inhibition of growth at 10 µM [16]: -6.39% | inhibition of growth at 10 µM [17]: 0% | inhibition of growth at 10 µM [18]: 2.97% | inhibition of growth at 10 µM [19]: -2.36% | inhibition of growth at 10 µM [20]: 9.38% | inhibition of growth at 10 µM [21]: -14.7% | inhibition of growth at 10 µM [22]: -4.8% | inhibition of growth at 10 µM [23]: -3.48% | inhibition of growth at 10 µM [24]: 0.1% | inhibition of growth at 10 µM [25]: -1.55% | inhibition of growth at 10 µM [26]: 2.29% | inhibition of growth at 10 µM [27]: 2.02% | inhibition of growth at 10 µM [28]: -3.52% | inhibition of growth at 10 µM [29]: -6.47% | inhibition of growth at 10 µM [30]: 5.01% | inhibition of growth at 10 µM [31]: 3.37% | inhibition of growth at 10 µM [32]: -1.09% | inhibition of growth at 10 µM [33]: -1.58% | inhibition of growth at 10 µM [34]: -1.65% | inhibition of growth at 10 µM [35]: -10.9% | inhibition of growth at 10 µM [36]: -10.2% | inhibition of growth at 10 µM [37]: -8.41% | inhibition of growth at 10 µM [38]: 7.58% | inhibition of growth at 10 µM [39]: 8.68% | inhibition of growth at 10 µM [40]: 1.71% | inhibition of growth at 10 µM [41]: -7.77% | inhibition of growth at 10 µM [42]: -3.65% | inhibition of growth at 10 µM [43]: -0.82% | inhibition of growth at 10 µM [44]: -3.08%
